The text below walks through data of patent publication US10238743B2 (Merck Sharp & Dohme Corp., priority 2014, dated 2019).

Experiment [1] addresses soluble human BACE1 catalytic domain (Homo sapiens (Human), UniProt P56817). Put plainly: BACE1 HTRF FRET Assay. It counts as biochemical. As to conditions: Ki calculated from IC50 using the Cheng-Prusoff equation; QSY7-APPswe-Eu substrate, pH 5.0; read-out: BACE-1 Ki. The source says:
Na^+-Acetate pH 5.0; 1% Brij-35; Glycerol; Dimethyl Sulfoxide (DMSO); Recombinant human soluble BACE1 catalytic domain (>95% pure); APP Swedish mutant peptide substrate (QSY7-APP^swe-Eu): QSY7-EISEVNLDAEFC-Europium-amide.
A homogeneous time-resolved FRET assay can be used to determine IC50 values for inhibitors of the soluble human BACE1 catalytic domain. This assay monitors the increase of 620 nm fluorescence that resulted from BACE1 cleavage of an APPswedish APP^swe mutant peptide FRET substrate (QSY7-EISEVNLDAEFC-Europium-amide). This substrate contains an N-terminal QSY7 moiety that serves as a quencher of the C-terminal Europium fluorophore (620 nm Em). In the absence of enzyme activity, 620 nm fluorescence is low in the assay and increased linearly over 3 hours in the presence of uninhibited BACE1 enzyme. Inhibition of BACE1 cleavage of the QSY7-APP^swe-Eu substrate by inhibitors is manifested as a suppression of 620 nm fluorescence.
Varying concentrations of inhibitors at 3× the final desired concentration in a volume of 10 ul are preincubated with purified human BACE1 catalytic domain (3 nM in 10 μl) for 30 minutes at 30° C. in reaction buffer containing 20 mM Na-Acetate pH 5.0, 10% glycerol, 0.1% Brij-35 and 7.5% DSMO. Reactions are initiated by addition of 10 μl of 600 nM QSY7-APP^swe-Eu substrate (200 nM final) to give a final reaction volume of 30 μl in a 384 well Nunc HTRF plate. The reactions are incubated at 30° C. for 1.5 hours. The 620 nm fluorescence is then read on a Rubystar HTRF plate reader (BMG Labtechnologies) using a 50 millisecond delay followed by a 400 millisecond acquisition time window. Inhibitor IC50 values are derived from non-linear regression analysis of concentration response curves. Ki values are then calculated from IC50 values using the Cheng-Prusoff equation using a previously determined […] of 8 μM for the QSY7-APP^swe-Eu substrate at BACE1.

Experiment [2] addresses purified human autoBACE-2 (Homo sapiens (Human), UniProt Q9Y5Z0). Put plainly: BACE-2 Assay (BACE-HTRF assay). It counts as biochemical. As to conditions: Ki calculated from IC50 using the Cheng-Prusoff equation; QSY7-EISEVNLDAEFC-Eu-amide substrate, pH 5.0. How it is done: Inhibitor IC50s at purified human autoBACE-2 are determined in a time-resolved endpoint proteolysis assay that measures hydrolysis of the QSY7-[…]-Eu-amide FRET peptide substrate (BACE-HTRF assay). […] DMSO is present at 5% final concentration in the assay. Following laser excitation of sample wells at 320 nm, the fluorescence signal at 620 nm is collected for 400 ms following a 50 μs delay on a RUBYstar HTRF plate reader (BMG Labtechnologies). Raw RFU data is normalized to maximum (1.0 nM BACE/DMSO) and minimum (no enzyme/DMSO) RFU values. […] The Ki values are calculated from the IC50 using the Cheng-Prusoff equation.

Chain of purified human autoBACE-2 (Q9Y5Z0 63-473 limits assumed): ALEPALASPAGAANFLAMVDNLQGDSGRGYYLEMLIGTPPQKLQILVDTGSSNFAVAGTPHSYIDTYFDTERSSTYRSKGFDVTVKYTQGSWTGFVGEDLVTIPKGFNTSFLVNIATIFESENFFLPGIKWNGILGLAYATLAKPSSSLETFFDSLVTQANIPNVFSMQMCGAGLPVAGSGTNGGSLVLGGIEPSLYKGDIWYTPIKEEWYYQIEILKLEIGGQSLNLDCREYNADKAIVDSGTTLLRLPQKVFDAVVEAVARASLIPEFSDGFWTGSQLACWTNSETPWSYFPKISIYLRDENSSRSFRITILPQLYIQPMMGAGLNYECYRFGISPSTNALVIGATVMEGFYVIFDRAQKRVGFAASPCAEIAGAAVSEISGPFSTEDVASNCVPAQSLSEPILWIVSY
Chain of soluble human BACE1 catalytic domain (P56817 75-416): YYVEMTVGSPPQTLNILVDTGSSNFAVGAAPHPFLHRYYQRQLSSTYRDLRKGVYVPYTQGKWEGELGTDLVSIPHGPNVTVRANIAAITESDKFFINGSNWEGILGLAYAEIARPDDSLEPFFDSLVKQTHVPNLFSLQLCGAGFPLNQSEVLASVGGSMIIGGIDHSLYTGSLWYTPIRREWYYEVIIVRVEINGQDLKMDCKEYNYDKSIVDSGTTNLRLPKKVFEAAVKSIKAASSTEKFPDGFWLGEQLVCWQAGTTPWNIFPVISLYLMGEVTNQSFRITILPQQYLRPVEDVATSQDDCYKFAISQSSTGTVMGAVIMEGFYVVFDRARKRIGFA

Regarding `COc1cnc2c(Nc3ccc4c(c3)[C@@]3(C)NC(=N)N(C)S(=O)(=O)[C@H]3CCO4)ccnc2c1` [Example 42, (4aS,11bR)-2-imino-10-((7-methoxy-1,5-naphthyridin-4-yl)amino)-3,11b-dimethyl-2,3,4a,5,6,11b-hexahydro-1H-benzo[2,3]oxepino[4,5-e][1,2,4]-thiadiazine 4,4-dioxide], the inhibitory constant (Ki) was 412 nM in experiment [1] and 1790 nM in experiment [2].

For `COc1cnc2c(Nc3ccc4c(c3)[C@@]3(C)NC(=N)N(C)S(=O)(=O)[C@H]3CCO4)nccc2c1` [Example 43, (4aS,11bR)-2-imino-10-((3-methoxy-1,7-naphthyridin-8-yl)amino)-3,11b-dimethyl-2,3,4a,5,6,11b-hexahydro-1H-benzo[2,3]oxepino[4,5-e][1,2,4]-thiadiazine 4,4-dioxide], the Ki in experiment [1] is 57 nM; in experiment [2], 148 nM.

As to `COc1cnc2c(Nc3ccc4c(c3)[C@@]3(C)NC(=N)N(C)S(=O)(=O)[C@H]3CCC4)nccc2n1` [Example 44, (4aS,11bR)-2-imino-10-((2-methoxypyrido[3,4-b]pyrazin-5-yl)amino)-3,11b-dimethyl-1,2,3,4a,5,6,7,11b-octahydrobenzo[6,7]cyclohepta[1,2-e][1,2,4]-thiadiazine 4,4-dioxide], the Ki was 45 nM in experiment [1] and 173 nM in experiment [2].

With `COc1cnc2c(Nc3ccc4c(c3)[C@@]3(C)NC(=N)N(C)S(=O)(=O)[C@H]3CCC4)ccnc2n1` [Example 45, (4aS,11bR)-2-imino-10-((3-methoxypyrido[2,3-b]pyrazin-8-yl)amino)-3,11b-dimethyl-1,2,3,4a,5,6,7,11b-octahydrobenzo[6,7]cyclohepta[1,2-e][1,2,4]-thiadiazine 4,4-dioxide], the Ki in experiment [1] is 547 nM; in experiment [2] it was 2440 nM.

Consider `COc1cnc2c(Nc3ccc4c(c3)[C@@]3(C)NC(=N)N(C)S(=O)(=O)[C@H]3CCC4)nccc2c1` [Example 46, (4aS,11bR)-2-imino-10-((3-methoxy-1,7-naphthyridin-8-yl)amino)-3,11b-dimethyl-1,2,3,4a,5,6,7,11b-octahydrobenzo[6,7]cyclohepta[1,2-e][1,2,4]-thiadiazine 4,4-dioxide], for which the Ki in experiment [1] is 108 nM; in experiment [2], 251 nM.

Turning to `CN1C(=N)N[C@]2(C)c3cc(NC4CCCC4)ccc3OCC[C@@H]2S1(=O)=O` [Example 47, (4aS,11bR)-10-(cyclopentylamino)-2-imino-3,11b-dimethyl-2,3,4a,5,6,11b-hexahydro-1H-benzo[2,3]oxepino[4,5-e][1,2,4]thiadiazine 4,4-dioxide], the values for the Ki in experiment [1] and in experiment [2] were 348 nM and 716 nM, respectively.

`CN1C(=N)N[C@]2(C)c3cc(NCC4CC4)ccc3OCC[C@@H]2S1(=O)=O` [Example 48, (4aS,11bR)-10-((cyclopropylmethyl)amino)-2-imino-3,11b-dimethyl-2,3,4a,5,6,11b-hexahydro-1H-benzo[2,3]oxepino[4,5-e][1,2,4]thiadiazine 4,4-dioxide]: the figures for the Ki in experiment [1] and in experiment [2] were 880 nM and 2010 nM, respectively.

For `CCCNc1ccc2c(c1)[C@@]1(C)NC(=N)N(C)S(=O)(=O)[C@H]1CCO2` [Example 49, (4aS,11bR)-2-imino-3,11b-dimethyl-10-(propylamino)-2,3,4a,5,6,11b-hexahydro-1H-benzo[2,3]oxepino[4,5-e][1,2,4]thiadiazine 4,4-dioxide], the Ki in experiment [1] is 918 nM; in experiment [2], 1980 nM.
